These results are taken from ChEMBL document CHEMBL1909046, “DrugMatrix in vitro pharmacology data”.

Structures are written as SMILES.

Usually IC50 stands for the concentration that gives 50% inhibition. In general, Ki refers to a measure of affinity in units of concentration, obtained from inhibition or displacement.

Sequence of Vasopressin V1a receptor (P37288 whole entry): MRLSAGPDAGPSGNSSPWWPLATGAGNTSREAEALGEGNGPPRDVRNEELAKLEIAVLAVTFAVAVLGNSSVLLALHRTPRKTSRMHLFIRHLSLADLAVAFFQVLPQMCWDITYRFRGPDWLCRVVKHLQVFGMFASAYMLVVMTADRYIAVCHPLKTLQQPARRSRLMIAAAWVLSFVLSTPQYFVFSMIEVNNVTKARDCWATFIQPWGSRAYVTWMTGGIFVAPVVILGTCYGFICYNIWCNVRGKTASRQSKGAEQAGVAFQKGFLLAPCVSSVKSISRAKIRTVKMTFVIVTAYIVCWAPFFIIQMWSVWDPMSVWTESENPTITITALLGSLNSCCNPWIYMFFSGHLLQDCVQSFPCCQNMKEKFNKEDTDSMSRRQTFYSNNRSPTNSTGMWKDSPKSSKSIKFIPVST

The first assay concerns the target Vasopressin V1a receptor (Homo sapiens, UniProt P37288). Note: in other assays of this panel Not Active means under 50% inhibition at 10 µM.
Assay: not given
The assay is classed as cell membranes, Membrane. As to conditions: hek293.
In the case of `Clc1ccc(C(c2ccccc2Cl)C(Cl)Cl)cc1` (stereo unspecified) [MITOTANE], the IC50 entry is reported as “Not Active”.

On to `COc1c(C)c2c(c(O)c1C/C=C(\C)CCC(=O)OCCN1CCOCC1)C(=O)OC2` [MYCOPHENOLATE MOFETIL], for which the IC50 entry was “Not Active”.

The target in a further assay is Mitogen-activated protein kinase 1 (Homo sapiens, UniProt P28482). As to the kind of experiment: DRUGMATRIX: Protein Serine/Threonine Kinase, ERK2 enzyme inhibition (substrate: Myelin Basic Protein). Set-up: species or system Escherichia coli. As to conditions: Not Active = under 50% inhibition at 10 µM.
Sequence of Mitogen-activated protein kinase 1 (P28482 whole entry): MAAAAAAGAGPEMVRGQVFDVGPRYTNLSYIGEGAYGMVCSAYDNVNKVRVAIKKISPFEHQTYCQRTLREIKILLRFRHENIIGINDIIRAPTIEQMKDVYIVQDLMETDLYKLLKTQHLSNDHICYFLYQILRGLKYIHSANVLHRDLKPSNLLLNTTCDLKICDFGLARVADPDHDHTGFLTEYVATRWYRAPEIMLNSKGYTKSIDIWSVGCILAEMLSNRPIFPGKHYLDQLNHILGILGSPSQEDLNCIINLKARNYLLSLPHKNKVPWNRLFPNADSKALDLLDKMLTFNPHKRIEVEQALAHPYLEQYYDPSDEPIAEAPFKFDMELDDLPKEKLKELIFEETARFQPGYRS
`Clc1ccc(C(c2ccccc2Cl)C(Cl)Cl)cc1` (stereo unspecified) [MITOTANE]: the IC50 result was “Not Active”.

As to `COc1c(C)c2c(c(O)c1C/C=C(\C)CCC(=O)OCCN1CCOCC1)C(=O)OC2` [MYCOPHENOLATE MOFETIL], the IC50 entry was “Not Active”.

Another assay addresses T1, Cysteinyl leukotriene receptor 1 (Homo sapiens, UniProt Q9Y271).
T1 sequence (Q9Y271 whole entry): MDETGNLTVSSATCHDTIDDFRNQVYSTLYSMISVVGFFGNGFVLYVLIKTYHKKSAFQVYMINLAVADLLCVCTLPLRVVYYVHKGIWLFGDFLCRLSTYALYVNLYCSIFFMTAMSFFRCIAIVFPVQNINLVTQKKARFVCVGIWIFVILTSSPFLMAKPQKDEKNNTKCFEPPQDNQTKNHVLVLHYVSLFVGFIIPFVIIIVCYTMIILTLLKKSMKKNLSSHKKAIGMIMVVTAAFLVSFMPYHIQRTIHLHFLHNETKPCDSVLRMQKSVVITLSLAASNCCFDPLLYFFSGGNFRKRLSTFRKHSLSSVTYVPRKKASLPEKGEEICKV
Assay: not given
In kind it is cell membranes, CHO-K1, Membrane. As to conditions: cho-k1.
Take `Clc1ccc(C(c2ccccc2Cl)C(Cl)Cl)cc1` (stereo unspecified) [MITOTANE]: the IC50 result is given as “Not Active”.

Turning to `COc1c(C)c2c(c(O)c1C/C=C(\C)CCC(=O)OCCN1CCOCC1)C(=O)OC2` [MYCOPHENOLATE MOFETIL], the IC50 entry is on record as “Not Active”.

The target of a further assay is T2, C-C chemokine receptor type 4 (Homo sapiens, UniProt P51679). Note: in other assays of this panel Not Active means under 50% inhibition at 10 µM.
T2 sequence (P51679 whole entry): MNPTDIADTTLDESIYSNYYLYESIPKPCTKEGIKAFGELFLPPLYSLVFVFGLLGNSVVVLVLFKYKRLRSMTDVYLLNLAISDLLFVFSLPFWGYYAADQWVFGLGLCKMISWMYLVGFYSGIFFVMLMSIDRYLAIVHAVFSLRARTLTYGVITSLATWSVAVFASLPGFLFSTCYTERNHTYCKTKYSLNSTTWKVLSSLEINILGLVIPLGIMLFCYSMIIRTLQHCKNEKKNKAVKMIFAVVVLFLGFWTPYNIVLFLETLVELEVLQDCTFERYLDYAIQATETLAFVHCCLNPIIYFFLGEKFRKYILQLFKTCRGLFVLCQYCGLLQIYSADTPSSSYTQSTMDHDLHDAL
Assay: not given
In kind it is cell membranes, Membrane. The following applies: chem-1.
For `Clc1ccc(C(c2ccccc2Cl)C(Cl)Cl)cc1` (stereo unspecified) [MITOTANE], the IC50 entry is “Not Active”.

Turning to `COc1c(C)c2c(c(O)c1C/C=C(\C)CCC(=O)OCCN1CCOCC1)C(=O)OC2` [MYCOPHENOLATE MOFETIL], the IC50 entry is “Not Active”.

The next assay concerns the target T3, Adenosine receptor A3 (Homo sapiens, UniProt P0DMS8).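 Note: radioligand binding assay with AB-MECA serving as the labeled ligand; in other assays of this panel Not Active means under 50% inhibition at 10 µM.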
T3 sequence (P0DMS8 whole entry): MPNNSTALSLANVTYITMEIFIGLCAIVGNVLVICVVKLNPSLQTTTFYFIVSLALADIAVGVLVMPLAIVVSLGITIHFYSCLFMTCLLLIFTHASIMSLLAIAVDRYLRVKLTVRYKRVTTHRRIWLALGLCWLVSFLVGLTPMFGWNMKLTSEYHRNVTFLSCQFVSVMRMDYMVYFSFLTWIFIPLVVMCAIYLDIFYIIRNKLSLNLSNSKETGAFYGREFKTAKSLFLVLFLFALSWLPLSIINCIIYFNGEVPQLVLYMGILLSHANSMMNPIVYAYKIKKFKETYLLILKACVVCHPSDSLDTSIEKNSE
Assay: not given
In kind it is cell membranes, CHO-K1, Membrane. As to conditions: cho-k1.
With `COc1c(C)c2c(c(O)c1C/C=C(\C)CCC(=O)OCCN1CCOCC1)C(=O)OC2` [MYCOPHENOLATE MOFETIL], the IC50 result was “Not Active”.

Still in this assay, the particulars now being: read-out: IC50.
Take `Clc1ccc(C(c2ccccc2Cl)C(Cl)Cl)cc1` (stereo unspecified) [MITOTANE]: the IC50 was 7.45 µM.

Still in this assay, the particulars now being: read-out: Ki.
As to `Clc1ccc(C(c2ccccc2Cl)C(Cl)Cl)cc1` (stereo unspecified) [MITOTANE], the Ki turned out to be 4.21 µM.

System in a further assay: not listed separately
As to the kind of experiment: DRUGMATRIX: Glutamate, NMDA, Agonism radioligand binding (ligand: [3H] CGP-39653). The assay is classed as cell membranes, Rattus norvegicus, Wistar, Cerebral cortex, Membrane. The following applies: Not Active = under 50% inhibition at 10 µM.
For the compound `Clc1ccc(C(c2ccccc2Cl)C(Cl)Cl)cc1` (stereo unspecified) [MITOTANE], the IC50 entry is reported as “Not Active” and the Ki result is “Not Active”.

On to `COc1c(C)c2c(c(O)c1C/C=C(\C)CCC(=O)OCCN1CCOCC1)C(=O)OC2` [MYCOPHENOLATE MOFETIL], for which the IC50 entry is recorded as “Not Active” and the Ki result is listed as “Not Active”.

System in another assay: not listed separately
Put plainly: DRUGMATRIX: Phorbol Ester radioligand binding (ligand: [3H] PDBu). In kind it is cell membranes, Mus musculus, ICR, Brain, Membrane. The following applies: Not Active = under 50% inhibition at 10 µM.
For `Clc1ccc(C(c2ccccc2Cl)C(Cl)Cl)cc1` (stereo unspecified) [MITOTANE], the IC50 result was “Not Active” and the Ki entry was “Not Active”.

For the compound `COc1c(C)c2c(c(O)c1C/C=C(\C)CCC(=O)OCCN1CCOCC1)C(=O)OC2` [MYCOPHENOLATE MOFETIL], the IC50 result was “Not Active” and the Ki result was “Not Active”.

The next assay deals with T4, Interstitial collagenase (Homo sapiens, UniProt P03956).
T4 sequence (P03956 whole entry): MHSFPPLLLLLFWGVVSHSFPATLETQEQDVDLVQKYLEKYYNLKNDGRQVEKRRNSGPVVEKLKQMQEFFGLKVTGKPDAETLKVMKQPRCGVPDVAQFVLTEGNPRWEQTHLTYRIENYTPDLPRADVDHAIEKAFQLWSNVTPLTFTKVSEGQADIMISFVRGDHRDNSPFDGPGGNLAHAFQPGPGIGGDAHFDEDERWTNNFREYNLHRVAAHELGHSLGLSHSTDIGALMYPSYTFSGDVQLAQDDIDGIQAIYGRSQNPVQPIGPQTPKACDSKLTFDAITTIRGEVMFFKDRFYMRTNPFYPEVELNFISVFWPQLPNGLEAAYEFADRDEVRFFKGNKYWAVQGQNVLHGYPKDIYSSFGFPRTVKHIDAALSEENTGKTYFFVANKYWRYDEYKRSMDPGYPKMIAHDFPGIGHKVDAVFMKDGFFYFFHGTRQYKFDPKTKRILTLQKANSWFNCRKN
Assay: not given
The assay is classed as tissue-based, Rheumatoid synovial fibroblasts.
Settings: not given
In the case of `Clc1ccc(C(c2ccccc2Cl)C(Cl)Cl)cc1` (stereo unspecified) [MITOTANE], the IC50 result is on record as “Not Active”.

Regarding `COc1c(C)c2c(c(O)c1C/C=C(\C)CCC(=O)OCCN1CCOCC1)C(=O)OC2` [MYCOPHENOLATE MOFETIL], the IC50 entry was “Not Active”.

For the next assay, the target named is T5, C-X-C chemokine receptor type 2 (Homo sapiens, UniProt P25025). Note: in other assays of this panel Not Active means under 50% inhibition at 10 µM.
T5 sequence (P25025 whole entry): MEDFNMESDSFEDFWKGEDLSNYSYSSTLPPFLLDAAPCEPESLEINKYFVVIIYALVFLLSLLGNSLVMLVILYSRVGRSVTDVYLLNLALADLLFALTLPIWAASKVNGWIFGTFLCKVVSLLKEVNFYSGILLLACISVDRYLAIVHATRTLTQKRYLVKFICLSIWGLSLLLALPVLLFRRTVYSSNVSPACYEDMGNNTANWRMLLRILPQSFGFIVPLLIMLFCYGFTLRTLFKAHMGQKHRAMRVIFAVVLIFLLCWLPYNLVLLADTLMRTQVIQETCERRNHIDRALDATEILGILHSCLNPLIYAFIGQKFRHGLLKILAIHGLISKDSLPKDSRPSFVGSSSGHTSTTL
Assay: not given
In kind it is cell membranes, Membrane. The following applies: cho-k1.
Consider `Clc1ccc(C(c2ccccc2Cl)C(Cl)Cl)cc1` (stereo unspecified) [MITOTANE], for which the IC50 entry is listed as “Not Active”.

Regarding `COc1c(C)c2c(c(O)c1C/C=C(\C)CCC(=O)OCCN1CCOCC1)C(=O)OC2` [MYCOPHENOLATE MOFETIL], the IC50 entry is “Not Active”.

Another assay addresses T6, Neuropeptide Y receptor type 1 (Homo sapiens, UniProt P25929).
T6 sequence (P25929 whole entry): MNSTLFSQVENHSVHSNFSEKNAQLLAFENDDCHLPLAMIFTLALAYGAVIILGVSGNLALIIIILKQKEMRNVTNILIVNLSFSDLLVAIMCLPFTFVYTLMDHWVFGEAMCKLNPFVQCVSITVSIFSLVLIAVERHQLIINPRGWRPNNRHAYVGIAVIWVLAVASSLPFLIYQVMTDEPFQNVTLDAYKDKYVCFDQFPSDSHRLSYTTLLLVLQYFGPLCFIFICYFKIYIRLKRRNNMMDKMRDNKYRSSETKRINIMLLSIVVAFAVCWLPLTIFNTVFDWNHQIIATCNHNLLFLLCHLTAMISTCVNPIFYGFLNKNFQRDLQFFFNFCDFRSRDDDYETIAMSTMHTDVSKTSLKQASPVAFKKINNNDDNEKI
Assay: not given
The assay is classed as cell membranes, Membrane. The following applies: sk-n-mc.
For `Clc1ccc(C(c2ccccc2Cl)C(Cl)Cl)cc1` (stereo unspecified) [MITOTANE], the IC50 result was “Not Active”.

`COc1c(C)c2c(c(O)c1C/C=C(\C)CCC(=O)OCCN1CCOCC1)C(=O)OC2` [MYCOPHENOLATE MOFETIL]: the IC50 entry was “Not Active”.

System in a further assay: not listed separately
As to the kind of experiment: DRUGMATRIX: Glutamate, NMDA, Phencyclidine radioligand binding (ligand: [3H] TCP). In kind it is cell membranes, Rattus norvegicus, Wistar, Cerebral cortex, Membrane. The following applies: Not Active = under 50% inhibition at 10 µM.
As for `Clc1ccc(C(c2ccccc2Cl)C(Cl)Cl)cc1` (stereo unspecified) [MITOTANE], the IC50 result is listed as “Not Active” and the Ki entry is “Not Active”.

`COc1c(C)c2c(c(O)c1C/C=C(\C)CCC(=O)OCCN1CCOCC1)C(=O)OC2` [MYCOPHENOLATE MOFETIL]: the IC50 entry is given as “Not Active” and the Ki result is “Not Active”.

For the next assay, the target named is T7, Leukotriene C4 synthase (Cavia porcellus, UniProt A6XA80).
T7 sequence (A6XA80 whole entry): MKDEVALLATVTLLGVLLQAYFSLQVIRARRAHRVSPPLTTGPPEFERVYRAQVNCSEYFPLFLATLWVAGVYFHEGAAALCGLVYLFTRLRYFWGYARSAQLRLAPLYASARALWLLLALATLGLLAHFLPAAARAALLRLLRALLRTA
As to the kind of experiment: biochemical.
Settings: not given
In kind it is tissue-based, Lung.
In the case of `Clc1ccc(C(c2ccccc2Cl)C(Cl)Cl)cc1` (stereo unspecified) [MITOTANE], the IC50 entry is given as “Not Active”.

`COc1c(C)c2c(c(O)c1C/C=C(\C)CCC(=O)OCCN1CCOCC1)C(=O)OC2` [MYCOPHENOLATE MOFETIL]: the IC50 entry is on record as “Not Active”.
